Measurements: ChEMBL document CHEMBL1153047, “Discovery of N-[(1-aryl-1H-indazol-5-yl)methyl]amides derivatives as smoothened antagonists for inhibition of the hedgehog pathway” (Bioorg Med Chem Lett, 2009)

Target: Protein smoothened (Homo sapiens, UniProt Q99835)
Test: Inhibition of BODIPY-cyclopamine to Smo in human HEK293 Flag-Smo cells in presence of 2% FCS
Type: cell-based

Sequence of Protein smoothened (Q99835 whole entry): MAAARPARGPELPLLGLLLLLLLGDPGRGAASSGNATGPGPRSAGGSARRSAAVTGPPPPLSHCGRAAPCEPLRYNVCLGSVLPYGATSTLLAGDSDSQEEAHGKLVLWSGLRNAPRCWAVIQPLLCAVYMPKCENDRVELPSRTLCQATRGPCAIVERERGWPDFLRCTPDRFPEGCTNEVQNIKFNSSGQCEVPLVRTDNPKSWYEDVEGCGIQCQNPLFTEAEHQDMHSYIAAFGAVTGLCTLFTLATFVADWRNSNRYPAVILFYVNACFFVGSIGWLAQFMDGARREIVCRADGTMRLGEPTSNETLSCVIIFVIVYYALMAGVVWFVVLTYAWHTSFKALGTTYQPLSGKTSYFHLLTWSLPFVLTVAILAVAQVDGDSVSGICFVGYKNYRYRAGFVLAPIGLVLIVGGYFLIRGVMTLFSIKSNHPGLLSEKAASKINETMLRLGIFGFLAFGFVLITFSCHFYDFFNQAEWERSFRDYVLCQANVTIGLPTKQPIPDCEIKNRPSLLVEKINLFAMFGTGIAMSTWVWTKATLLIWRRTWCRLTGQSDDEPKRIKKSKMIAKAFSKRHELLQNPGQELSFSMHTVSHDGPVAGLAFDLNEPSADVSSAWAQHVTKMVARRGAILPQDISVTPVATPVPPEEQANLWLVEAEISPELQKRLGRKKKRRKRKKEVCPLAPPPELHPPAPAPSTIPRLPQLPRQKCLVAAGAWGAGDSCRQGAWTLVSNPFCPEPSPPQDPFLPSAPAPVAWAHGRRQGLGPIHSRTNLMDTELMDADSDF

IC50: > 10 µM
Compound: O=C(Cc1ccccc1)NCc1ccc2c(cnn2-c2ccc(F)cc2)c1
